Data reported in ChEMBL document CHEMBL1155996, “Improving potency and selectivity of a new class of non-Zn-chelating MMP-13 inhibitors” (Bioorg Med Chem Lett, 2009).
Converted amounts (≈) assume the structure as drawn.

Legend:
[1] = Solubility of compound at pH 4.5 by high throughput screening; type: physicochemical; conditions: buffer
[2] = Solubility of compound at pH 7.4 by high throughput screening; type: physicochemical; conditions: buffer
Collagenase 3 = Collagenase 3 (Homo sapiens, UniProt P45452); test: Inhibition of human MMP13 by FRET assay

| Structure (SMILES) | solubility [1] [µg/mL] | solubility [2] [µg/mL] | IC50 (Collagenase 3) [µM] |
| --- | --- | --- | --- |
| CNC(=O)[C@@H](NC(=O)c1ccc(-c2ccc(NS(C)(=O)=O)cc2)o1)C1CCCCC1 | 53 (≈ 122 µM) | 61 (≈ 141 µM) |  |
| CNC(=O)[C@@H](NC(=O)c1ccc(-c2ccc(Oc3ccccc3)cc2)o1)C1CCCCC1 |  |  | > 50 |
| CNC(=O)[C@@H](NC(=O)c1ccc(-c2ccc(OC)cc2)o1)C1CCCCC1 | 1.4 (≈ 3.78 µM) | 1.6 (≈ 4.32 µM) |  |
| CNC(=O)[C@@H](NC(=O)c1ccc(-c2ccc(S(=O)(=O)NC)cc2)o1)C1CCCCC1 | 50 (≈ 115 µM) | 52 (≈ 120 µM) |  |
| CNC(=O)[C@@H](NC(=O)c1ccc(-c2ccc(Cl)cn2)o1)C1CCCCC1 | 35 (≈ 93.1 µM) | 37 (≈ 98.4 µM) |  |
| CNC(=O)[C@@H](NC(=O)c1ccc(-c2ccc(OCc3cc(C)n(C)n3)cn2)o1)C1CCCCC1 | > 57 | > 57 |  |
| CCOc1ccc(-c2ccc(C(=O)N[C@H](C(=O)NC)C3CCCCC3)o2)nc1 | 33 (≈ 85.6 µM) | > 49 |  |
| CNC(=O)[C@@H](NC(=O)c1ccc(-c2ccc(NC(C)=O)cc2)o1)C1CCCCC1 | 15 (≈ 37.7 µM) | 17 (≈ 42.8 µM) | 1.55 |
| CNC(=O)[C@@H](NC(=O)c1ccc(-c2ccc(OCc3cc(C)n[nH]3)cn2)o1)C1CCCCC1 | 25 (≈ 55.4 µM) | 31 (≈ 68.7 µM) |  |

Further lines, results first:

| solubility [1] [µg/mL] | solubility [2] [µg/mL] | IC50 (Collagenase 3) [µM] | Structure (SMILES) |
| --- | --- | --- | --- |
| 39 (≈ 89.1 µM) | 43 (≈ 98.3 µM) |  | CNC(=O)[C@@H](NC(=O)c1ccc(-c2ccc(OCc3ccn[nH]3)cn2)o1)C1CCCCC1 |
| < 0.1 | 0.1 (≈ 0.205 µM) |  | CNC(=O)[C@@H](NC(=O)c1ccc(-c2ccc(OCc3cc4ccccc4o3)cn2)o1)C1CCCCC1 |
| 1.5 (≈ 4 µM) | 1.9 (≈ 5.07 µM) |  | CNC(=O)[C@@H](NC(=O)c1ccc(-c2ccc(Cl)cc2)o1)C1CCCCC1 |
| 16 (≈ 40.3 µM) | 17 (≈ 42.8 µM) | 6 | CNC(=O)c1ccc(-c2ccc(C(=O)N[C@H](C(=O)NC)C3CCCCC3)o2)cc1 |
| 7.4 (≈ 16 µM) | 3.4 (≈ 7.35 µM) |  | CNC(=O)[C@@H](NC(=O)c1ccc(-c2ccc(OCc3cccc(C)n3)cn2)o1)C1CCCCC1 |
